The source of these data is ChEMBL document CHEMBL4732174, “Discovery of 6-(7-Nitro-2,1,3-benzoxadiazol-4-ylthio)hexanol Derivatives as Glutathione Transferase Inhibitors with Favorable Selectivity and Tolerated Toxicity” (J Med Chem, 2021).

The subject of one data set is HUVEC. Briefly: Cytotoxicity against HUVEC assessed as reduction in cell viability incubated for 72 hrs by MTT assay. Format: cell-based. Conditions: Homo sapiens. (Tetrazolium dyes change colour on reduction, which living cells bring about.)
The nature of data set [1]: MRT (0 to t) in Sprague-Dawley rat at 80 mg/kg, po administered as single dose measured upto 48 hrs by LC-MS/MS analysis. Conditions: in vivo.
A short description of data set [2]: in vivo. Conditions: Sprague-Dawley, rat, po, 80 mg/kg.
Description: Terminal half life in Sprague-Dawley rat at 80 mg/kg, po administered as single dose measured upto 48 hrs by LC-MS/MS analysis
Data set [3] in a line: in vivo. Conditions: Sprague-Dawley, rat, po, 80 mg/kg. The source holds these as a separate data set.
Description: AUC (0 to t) in Sprague-Dawley rat at 80 mg/kg, po administered as single dose measured upto 48 hrs by LC-MS/MS analysis
The nature of data set [4]: Water solubility of the compound measured by UV-Visible spectral analysis. Format: physicochemical. Conditions: water; read-out: solubility.
Data set [5] concerns 143B. Briefly: Induction of cell cycle arrest in human 143B cells assessed as accumulation at G2 phase at 10 uM incubated for 48 hrs by propidium iodide staining based flow cytometry (reference value: 1.35 %). Format: functional. In general terms: A flow cytometer gives signals particle by particle.
Data set [6] is described as follows: Toxicity in BALB/c nude mouse xenografted with human 143B cells assessed as body weight loss at 20 mg/kg, po administered once daily for 28 consecutive days and measured every 3 days. Format: organism-based. Conditions: in vivo, 672 h, time 28 day. For orientation: A xenograft is tissue or cells of one species grown in another, often human tumour cells in immunodeficient mice.

A short description of data set [7]: in vivo. The note with it: Sprague-Dawley, rat, po, 80 mg/kg. This is another data set of the same source.
Description: Cmax in Sprague-Dawley rat at 80 mg/kg, po administered as single dose measured upto 48 hrs by LC-MS/MS analysis
Data set [8] can be described thus: Toxicity in BALB/c nude mouse xenografted with human 143B cells assessed as heart edema at 5 to 20 mg/kg, po administered once daily for 28 consecutive days by hematoxylin-eosin staining based assay. Format: organism-based. The note with it: in vivo, 672 h, dose 5-20 mg/kg, time 28 day.
The target in data set [9] is T1, liver carboxylesterase (Sus scrofa, UniProt Q29550).
T1 sequence (Q29550 whole entry): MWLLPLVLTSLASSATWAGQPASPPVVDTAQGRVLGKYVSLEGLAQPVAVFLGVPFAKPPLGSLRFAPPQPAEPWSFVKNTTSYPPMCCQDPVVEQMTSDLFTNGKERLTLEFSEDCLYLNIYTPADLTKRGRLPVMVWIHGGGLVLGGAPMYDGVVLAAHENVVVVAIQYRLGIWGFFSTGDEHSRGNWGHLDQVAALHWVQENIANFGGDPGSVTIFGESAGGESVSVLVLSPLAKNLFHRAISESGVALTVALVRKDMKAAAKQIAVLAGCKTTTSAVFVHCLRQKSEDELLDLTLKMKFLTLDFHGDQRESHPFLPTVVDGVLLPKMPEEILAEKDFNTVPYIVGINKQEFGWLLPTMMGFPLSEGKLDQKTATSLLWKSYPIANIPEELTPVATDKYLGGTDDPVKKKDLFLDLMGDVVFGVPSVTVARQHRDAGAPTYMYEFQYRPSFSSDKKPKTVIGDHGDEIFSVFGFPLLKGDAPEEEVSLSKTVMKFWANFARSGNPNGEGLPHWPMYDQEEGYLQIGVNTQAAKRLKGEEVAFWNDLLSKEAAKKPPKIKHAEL
Briefly: Stability of the compound assessed as pig liver carboxylesterase-mediated compound hydrolysis at 10 mM measured after 12 hrs by HPLC analysis. Conditions: read-out: Drug degradation. The format is ADME.

Data set [10] in a line: in vivo. Conditions: Sprague-Dawley, rat, po, 80 mg/kg. This is another data set of the same source.
Description: Tmax in Sprague-Dawley rat at 80 mg/kg, po administered as single dose measured upto 48 hrs by LC-MS/MS analysis
The test system of data set [11] is 143B. Briefly: Induction of cell cycle arrest in human 143B cells assessed as accumulation at G1 phase at 5 uM incubated for 48 hrs by propidium iodide staining based flow cytometry (reference value: 66.62 %). The format is functional.
The next data set deals with HOS. Briefly: Antiproliferative activity against human HOS cells assessed as inhibition of cell proliferation incubated for 72 hrs by MTT assay. Format: functional, cell-based.
Data set [12] is described as follows: Toxicity in BALB/c nude mouse xenografted with human 143B cells assessed as cellular inflammation in liver at 5 to 20 mg/kg, po administered once daily for 28 consecutive days by hematoxylin-eosin staining based assay. Format: organism-based. The note with it: in vivo, 672 h, dose 5-20 mg/kg, time 28 day.
Data set [13] concerns the target T1, liver carboxylesterase. Briefly: Stability of the compound assessed as pig liver carboxylesterase-mediated compound hydrolysis at 10 mM measured after 24 hrs by HPLC analysis. Conditions: read-out: Drug degradation. Format: ADME.
For data set [14] the following is noted: rat, in vivo, po, 80 mg/kg, 48 h.
Description: AUC (0 to infinity) in Sprague-Dawley rat at 80 mg/kg, po administered as single dose measured upto 48 hrs by LC-MS/MS analysis
Data set [15] is described as follows: Toxicity in BALB/c nude mouse xenografted with human 143B cells assessed as cellular inflammation in kidney at 5 to 20 mg/kg, po administered once daily for 28 consecutive days by hematoxylin-eosin staining based assay. Format: organism-based. Conditions: in vivo, 672 h, dose 5-20 mg/kg, time 28 day.
The nature of data set [16]: Antiproliferative activity against […] B16 cells assessed as inhibition of cell proliferation incubated for 72 hrs by MTT assay. The format is functional, cell-based. The note with it: B16, 72 h.
The nature of data set [17]: Toxicity in BALB/c nude mouse xenografted with human 143B cells assessed as cellular inflammation in lung at 5 to 20 mg/kg, po administered once daily for 28 consecutive days by hematoxylin-eosin staining based assay. The format is organism-based. The note with it: in vivo, 672 h, dose 5-20 mg/kg, time 28 day.
Data set [18] is described as follows: Toxicity in BALB/c nude mouse xenografted with human 143B cells assessed as necrosis in heart at 5 to 20 mg/kg, po administered once daily for 28 consecutive days by hematoxylin-eosin staining based assay. Conditions: in vivo, 672 h, dose 5-20 mg/kg, time 28 day. The format is organism-based.
In data set [19] the test system is 143B. Briefly: Induction of apoptosis in human 143B cells assessed as apoptotic cells at 10 uM incubated for 24 hrs by Annexin V-FITC/PI double staining based flow cytometric analysis (reference value: 3.9%). Format: functional.

In brackets after ≈: the same amount, converted by molar mass.

As usually defined, the IC50 is the midpoint of a concentration-inhibition curve. As usually defined, the MRT last is a mean duration of stay, worked out from the concentration-time curve. Broadly, the half-life is the time in which the quantity being followed falls by half. A lower half-life goes with fast loss. As usually defined, the AUC(0-t) is exposure summed from dosing to a finite time, without extrapolation to infinity. A lower AUC(0-t) goes with less exposure. For orientation: solubility means the concentration that dissolves in the medium under given conditions. As usually defined, the Cmax is the highest concentration seen after dosing. The term Tmax denotes the time from dosing to the highest level. Usually AUC stands for concentration integrated over time. For the compound `CN(C)CCCNC(=O)CCC(=O)OCCCCCCSc1ccc([N+](=O)[O-])c2nonc12`, the IC50 with HUVEC was found to be 1600 nM; in the data set on HOS, 1850 nM; in data set [16], 950 nM. Also, in data set [1], the MRT last at 48 h was 6.35 h. Besides, the half-life at 48 h in “in vivo [2]” was 7.28 h. This compound showed an AUC(0-t) at 48 h in “in vivo [3]” of 6420 ng·h/mL. The solubility in data set [4] turned out to be 9000 µg/mL (≈ 18.7 mM). Besides, the Activity in the data set on 143B [5] is recorded as 21.01%; in data set [6], “Non-Toxic”; in data set [8], “Non-Toxic”; with 143B [11] it was 49.82%; in [12], “Non-Toxic”; in [15] it was “Non-Toxic”. Besides, the Activity entry in [17] is reported as “Non-Toxic”; in data set [18], “Non-Toxic”; in the data set on 143B [19], 84%. The highest concentration (Cmax) at 48 h in “in vivo [7]” amounted to 1810 ng/mL. For the same compound, the metabolised at 12 h, 10000 µM at liver carboxylesterase [9] amounted to 33%. The Tmax at 48 h in “in vivo [10]” worked out at 2.33 h. The metabolised at 24 h, 10000 µM on liver carboxylesterase [13] turned out to be 45%. Further, the AUC in data set [14] came out at 6514.48 ng·h/mL.
